Measurements: patent US7067145B2, “Use of arachidonic acid for enhanced culturing of fish larvae and broodstock” (University of Maryland Biotechnology Institute, priority 2000, dated 2006)
Values joined by “and” are separate entries in the source; they are usually repeats but may differ in a detail not shown here. Equal entries are not always repeated.

Experiments:
[1] = test system: striped bass (M. saxatilis) larvae; assay: Striped bass larvae feeding experiment (day 24-46) on Artemia enriched with DHA/AA emulsions: growth, survivorship; type: in vivo, Morone saxatilis; conditions: day 46
Experimental: Newly hatched striped bass (M. saxatilis) larvae were obtained from the Aquaculture Research Center (ARC) of the Center of Marine Biotechnology (COMB), University of Maryland. Larvae were raised for 17 days post hatching on rotifers, Bracionus plicatilis (2-5 rotifers ml^−1), which were grown separately on fresh-water Chlorella sp. paste (0.5 g/10^6 rotifers/day, obtained from Martek BioSci. Inc. Columbia, Md.).
Seventeen days post-hatched larvae were randomly distributed in eighteen 60-liter rearing tanks at an initial density of 160 larvae per tank. The rearing tanks were gently aerated and the water volume exchanged 1-2 times per day with biofiltered, UV treated recirculating water. A 14:10 h light:dark photoperiod cycle was maintained using fluorescent lights (Daylight; 40 watts; 800-1200 lux at the water surface). Temperature was maintained at 24±2° C. and salinity at 2-6 psu. Water quality was monitored daily, and levels of total NH3, unionized N-3, NO2 and pH were maintained below 0.2 ppm, 0.001 ppm, 0.3 ppm and at 8.02, respectively, by partial replacement with fresh water.
Newly hatched Artemia nauplii were introduced to the larvae from day 17 until day 24 (once a day at 20-40 nauplii 1^−1), while rotifer concentration was reduced gradually to a complete removal by day 24.
Larvae then were fed twice daily with Artemia nauplii, enriched with nine dietary emulsions containing varying proportions of DHA and AA.
A 3×3 factorial design with two nutritional factors (DHA and AA) at three levels each and in duplicate blocks was used. This experimental design allowed for the simultaneous study of the effect of increasing dietary levels of DHA and AA either alone or in various combination of both fatty acids. Nine different emulsions having varying proportions of DHA-rich triacylglycerols from heterotrophically grown algae, Crypthecodinium spp. (0, 11.1 and 21.6 mg g^−1 lipids) and AA-rich triacylglycerols (3, 14.5 and 24.8 mg g^−1 lipids) from fungi, Mortierella spp. (DHASCO and ARASCO, Martek BioSci. Columbia, Md.) were formulated.
A mixture of 2% alginic acid, 2% polyoxyethylene sorbitan mono-oleate (Tween-80), 1% ascorbic acid, 1% vitamin-E, 1% silicon based anti-foaming agent (all mad e by Sigma Co. MO) and 5% soy lecithin (80% phosphatidylcholine, Archer Daniels Midland Co., Decatur, Ill.) were added to the oils (all additions made by weight). […]
Feeding experiments were terminated on day 46. […] Survivorship was determined based on the initial and final count of larvae in each rearing tank. […]

[2] = test system: striped bass (M. saxatilis) larvae; assay: Salinity stress test, larval survival; type: in vivo, Morone saxatilis; conditions: for Survival (%) at 30 min: 30 min high-salinity stress (25 psu)
Experimental: (§1) A group of 30 larvae was promptly transferred from the 10-liter bucket and immediately divided into three 1-liter beakers (ten larvae in each beaker) containing 25-ppt NaCl in dechlorinated fresh water. These hypersaline exposure conditions were established following preliminary tests in which approximately 50% of the larvae survived after 30 minutes exposure. Larval survival at 0, 15 and 30 minutes was recorded, and five larvae at each time interval were quickly removed and sacrificed on dry ice. Samples were washed with chilled distilled water, dried on paper towel, placed into test tubes and lyophilized to constant weight. The dry weight of each hypersaline-exposed larva was recorded to the nearest 0.1 mg. Samples were kept at −80° C. for subsequent whole larva cortisol analysis.

[3] = test system: striped bass (M. saxatilis) larvae; assay: Whole larva cortisol (RIA) in high-salinity stress; type: in vivo, Morone saxatilis; conditions: for Body Cortisol at 30 min: 30 min high-salinity stress
Experimental: as §1
Cortisol was measured on whole larva using a solid-phase radioimmunoassay (RIA) Coat-A-Count Cortisol kit (DPC, Los Angeles, Calif.) following the manufacturer's procedure. Whole body cortisol was extracted from lyophilized larvae with ethyl ether (Barry et al. 1995). Extraction efficiency was determined by adding 1000 dpm 1,2,6,7-^3H-cortisol to each larva sample (specific activity −67.0 Ci mmol^−1, Amersham, Piscataway, N.J.). Cortisol extracts were reconstituted in 150 μl RIA buffer (included in the cortisol RIA kit). Cortisol concentration was then determined in 100-μl aliquots. Spiking recovery was measured in unknown samples using three spiking dilutions (1, 3, 7 ng, Cortisol Immulite, DPC, Los Angeles, Calif.). […] Two additional 20-μl aliquots were taken to determine ^3H-cortisol recovery.

[4] = test system: Gilthead sea bream, Sparus aurata larvae; assay: Gilthead sea bream larvae fed enriched rotifers and Artemia; type: in vivo; conditions: 5 to 34-day-old sea bream larvae; DHA enriched vs no DHA containing rotifers and Artemia
Experimental: Gilthead sea bream, Sparus aurata and European sea bass, Dicentrarchus labrax larvae originated from spawns of locally maintained broodstock were stocked over three days with two-day-old larvae (40,000 larvae tank^−1). Sea bream larvae from day 3 to day 20 were fed twice daily rotifers that were previously enriched on first phototrophically grown Nannochloropsis sp. and then on either Algamac-2000 or PL-Cr. Rotifer and Artemia enrichments and larval feeding were carried out as described in Koven et al. 2001. Sea bream larval growth and survival as a function of enrichment materials was recorded on day 34. European sea bass larvae were maintained in darkness until day-8 when they started feeding on non-enriched Artemia nauplii until day 11. From day-11 to day-21, the larvae were fed twice daily under low illumination (approximately 100-lux) Algamac-2000 or PL-Cr enriched Artemia nauplii.
Total lipids were extracted from triplicate samples. Lipid weight was determined gravimetrically (Mettler UMT2 ±0.1 mg, Toledo, Switzerland) and expressed as percent DW of sample. Fatty acid methyl esters (FAME) were prepared from the whole lipid extract, and the lipid classes separated, saponified and transmethylated as described by Harel et al. (2000).

[5] = test system: white bass, Morone chrysops larvae; assay: White bass larvae feeding (22 days) on enriched Artemia: growth, survival, total lipid; type: in vivo
Experimental: Larvae rearing. Newly hatched white bass, Morone chrysops larvae were obtained from AquaFutures Inc. (Turners Falls, Mass.). Larvae were grown for 17 days on rotifers, Bracionus plicatilis (2-5 rotifers/ml), which had been cultured on fresh water Chlorella (Martek BioSci. Inc. Columbia, Md.) paste (0.5 g/10^6 rotiferes/day). Larvae were randomly distributed in eighteen 60-liter larval rearing tanks at an initial density of 160 larvae per tank. The tanks were gently aerated and the water volume exchanged 1-2 times per day with biofiltered, U.V treated recirculating water. A 14:10 h light:dark photoperiod was maintained using fluorescent light tubes (Daylight; 40 watts; 800-1200 lux at the water surface). Temperature was maintained at 242° C. and salinity at 2-6 psu. Water quality was monitored daily and levels of total NH3, unionized NH3, NO2 and pH were maintained below 0.2 ppm, 0.001 ppm, 0.3 ppm and at 8.02, respectively. […]
Larvae were then fed twice daily with previously enriched Artemia nauplii, as described above, at a concentration of 50-100 nauplii/liter for the next 22 days.
[…] The dry weight of each larva was recorded to the nearest […] Nettler UMT2, Toledo, Switzerland). […] Survivorship was determined based on the initial and final count of larvae in each rearing tank.

[6] = dietary DHA 0.0 mg g^−1 D.W, pooled over AA levels

CC/C=C\C/C=C\C/C=C\C/C=C\C/C=C\C/C=C\CCC(=O)O [DHA, docosahexaenoic acid]
Larval weight (mean) ([1]; 21.6-mg DHA g^−1 lipids): 20.4 mg dry weight
Larval weight (mean) ([1]; zero dietary DHA): 22.7 mg dry weight
Survival (%) at 30 min [2, 6]: 30.7 ± 4.9^B %
Survival (%) at 30 min ([2]; dietary DHA 11.1 mg g^−1 D.W): 48.3 ± 7.2^AB %
Survival (%) at 30 min ([2]; dietary DHA 21.6 mg g^−1 D.W): 50.99 ± 5.8^A %
Body Cortisol at 0 min [3, 6]: 123 ± 8^A pg mg^−1 D.W
Body Cortisol at 30 min ([3]; dietary DHA 0.0 mg g^−1 D.W): 155 ± 16^B pg mg^−1 D.W
Body Cortisol at 0 min ([3]; dietary DHA 11.1 mg g^−1 D.W): 128 ± 16^A pg mg^−1 D.W
Body Cortisol at 30 min ([3]; dietary DHA 11.1 mg g^−1 D.W): 182 ± 22^AB pg mg^−1 D.W
Body Cortisol at 0 min ([3]; dietary DHA 21.6 mg g^−1 D.W): 118 ± 11^A pg mg^−1 D.W
Body Cortisol at 30 min ([3]; dietary DHA 21.6 mg g^−1 D.W): 193 ± 26^A pg mg^−1 D.W
Improvement of larval growth [4]: ≤ 40%

CCCCC/C=C\C/C=C\C/C=C\C/C=C\CCCC(=O)O [AA, arachidonic acid]
Larval weight ([1]; 3-mg AA g^−1 lipids): 19.4 mg dry weight
Larval weight ([1]; 14.5-mg AA g^−1 lipids): 23.7 mg dry weight
Mortality after 30 min of exposure ([2]; 3 mg g^−1 lipids dietary AA (AA deficient larvae), 25-psu): over 80%
Survival (%) at 30 min ([2]; dietary AA 3.0 mg g^−1 D.W, pooled over DHA levels): 19.5 ± 1.8^B %
Survival (%) at 30 min ([2]; dietary AA 14.5 mg g^−1 D.W): 61.8±4.2% and 61.8 ± 4.2^A %
Survival (%) at 30 min ([2]; dietary AA 24.8 mg g^−1 D.W): 48.7 ± 5.0^A %
Body Cortisol at 0 min ([3]; dietary AA 3.0 mg g^−1 D.W): 106 ± 10^B pg mg^−1 D.W
Body Cortisol at 30 min ([3]; dietary AA 3.0 mg g^−1 D.W): 171 ± 18^A pg mg^−1 D.W
Body Cortisol at 0 min ([3]; dietary AA 14.5 mg g^−1 D.W): 142 ± 15^A pg mg^−1 D.W
Body Cortisol at 30 min ([3]; dietary AA 14.5 mg g^−1 D.W): 192 ± 27^A pg mg^−1 D.W
Body Cortisol at 0 min ([3]; dietary AA 24.8 mg g^−1 D.W): 122 ± 10^AB pg mg^−1 D.W
Body Cortisol at 30 min ([3]; dietary AA 24.8 mg g^−1 D.W): 167 ± 20^A pg mg^−1 D.W
Increase in basal cortisol levels ([3]; increasing dietary AA from 3 to 14.5 mg AA g^−1 lipids): ~40%
Larval growth (weight) ([5]; 25.4% AA of enrichment total fatty acids, 11.1% DHA): 13.1±1.5 mg dry weight
Larval growth (weight) ([5]; no dietary AA, 11.1% DHA of total fatty acids in enrichment lipids): 21.3±1.8 mg dry weight
